One experiment has as its target T1, CaMKK2 (Homo sapiens, UniProt Q96RR4).
T1 construct: made in house; host or cells: HEK293 (transient transfection, anti-FLAG immunoprecipitate)
The experiment can be described thus: Cell-free CaMKK2 kinase assay (CaMKKtide). It counts as biochemical. Conditions: increasing concentrations, 0 to 1 μM. As to the method:
Heterotrimeric human AMPK FLAG- α1β1γ1, FLAG- α2β1γ1, and FLAG- α2β2γ1, as well as human FLAG-CaMKK2 and FLAG-ULK1, were produced in mammalian HEK293 cells as described ([66], [67]). For AMPK expression, the cells were triply transfected at 60% confluency using FuGene HD (Roche Applied Science) and 1 μg of pcDNA3 plasmid expression constructs for AMPK Flag-α1, β1-Myc, β2-Myc, and HA-γ1. For CaMKK2 expression, the cells were transfected with 1 μg of pcDNA3 Flag-CaMKK2 plasmid. For ULK1 expression, the cells were transfected with […] of pcDNA3 FLAG-ULK1 plasmid. After 48 hours, the transfected cells were harvested by rinsing with ice-cold PBS, followed by rapid lysis using 500 μl of lysis buffer. AMPK, CaMKK2, and ULK1 kinase activities were determined by phosphorylation of synthetic peptide substrates: SAMS (HMRSAMSGLHLVKRR), CaMKKtide ([…]), and S108tide. (KLPLTRSHNNFVARRR), respectively. Briefly, recombinant AMPK, CaMKK2, or ULK1 were immunoprecipitated from 10 μg of transfected cultured cell lysate using 10 μl of anti-FLAG M2 agarose beads [50% (v/v)] […] Radioactivity was quantified by liquid scintillation counting. […]

Experiment [1] relates to pThr172-AMPKα in U2OS cells. Nature of the experiment: HTRF assay of Thr172-AMPKα phosphorylation in U2OS cells. Conditions: for pEC50: Homo sapiens, U2OS; for AMPK phosphorylation (pThr172): dose response. In kind it is cell-based, human. On the procedure: Human osteosarcoma U2OS WT cells were obtained from John Rouse (MRC Protein Phosphorylation and Ubiquitylation Unit, University of Dundee) and were cultured in DMEM high glucose + GlutaMAX Supplement, pyruvate (Thermo Fisher Scientific, catalog no. 31966-021) containing penicillin G (100 U/ml), streptomycin (100 μg/ml), and 10% (v/v) FBS seeding with 50,000 cells per well in a 50-μl volume in culture 96-well cell culture plates (Corning Incorporated costar, #3599). The next day, the media were changed to 50 μl of serum-free media, and 50 μl of serum-free media containing BAY-3827 or BAY-974 was dispensed and left to incubate at 37°C for 30 min. […] HTRF assays using either phospho-Ser^79-ACC1 kit (Revvity, #64ACCPEG) or phospho-Thr^172-AMPK kit (Revvity, #64AMPKPEG) were performed in triplicate in HTRF 96-well low volume white plates (Revvity, #66PL96001) following manufacturer’s instructions. Sealed plates incubated overnight in darkness conditions were scanned at room temperature in Multimode Plate Reader EnVision (PerkinElmer) machine following HTRF setup recommendations for EnVision (Revvity), equipped with a top mirror LANCE/DELFIA single mirror (#412), a UV2 (TRF) 320 excitation filter (#111), emission filter APC 665 (#205), and second emission filter Europium 615 (#203), with a 2000-μs cycle and 60-μs delay, with the number of flashes set to 100 as well as for the 2nd detector. Results were viewed in EnVision Manager software (version 1.13.3009.1401) where 665/615 ratios were calculated, and data were normalized to control condition as %. All assay ratios between control lysate signal/nonspecific signal were greater than 2 as expected of a successful assay following the manufacturer’s instructions. Data were visualized in GraphPad Prism v10.
(Time-resolved FRET reads energy transfer from a long-lived donor to a nearby acceptor.)

Another experiment concerns the target PKA (Homo sapiens, UniProt P17612). The experiment can be described thus: Kinase panel (140 human kinases). It counts as biochemical. As to the method:
(§1) BAY-3827 and BAY-974 were assayed against a 140-human kinase panel at 0.1 μM and at 1 μM (BAY-3827) concentration in a [γ-^33P] ATP–based radioactive filter binding assay ([31], [65]) setup in duplicates with reported mean remaining kinase percentage activity alongside SD (table S1). Assays were performed at either 5, 20, or 50 μM ATP to be at or below the Michaelis constant for ATP for each enzyme and conducted by the services offered by the International Centre for Kinase Profiling at MRC Protein Phosphorylation and Ubiquitylation Unit, University of Dundee (https://www.kinase-screen.mrc.ac.uk/services/premier-screen).

A further experiment deals with HER4 (Homo sapiens, UniProt Q15303). Nature of the experiment: Kinase panel (140 human kinases). It counts as biochemical. As to the method:
as §1

For a further experiment, the target named is IGF-1R (Homo sapiens, UniProt P08069). Nature of the experiment: Kinase panel (140 human kinases). In kind it is biochemical. As to the method:
as §1

A further experiment addresses EIF2AK3 (Homo sapiens, UniProt Q9NZJ5). The experiment can be described thus: Kinase panel (140 human kinases). In kind it is biochemical. As to the method:
as §1

pEC50: −log10 of the molar value.

The text below walks through data of publication PMC12372887, “Mechanism and cellular actions of the potent AMPK inhibitor BAY-3827” (Science Advances, 2025).

Chain of EIF2AK3 (Q9NZJ5 30-1116): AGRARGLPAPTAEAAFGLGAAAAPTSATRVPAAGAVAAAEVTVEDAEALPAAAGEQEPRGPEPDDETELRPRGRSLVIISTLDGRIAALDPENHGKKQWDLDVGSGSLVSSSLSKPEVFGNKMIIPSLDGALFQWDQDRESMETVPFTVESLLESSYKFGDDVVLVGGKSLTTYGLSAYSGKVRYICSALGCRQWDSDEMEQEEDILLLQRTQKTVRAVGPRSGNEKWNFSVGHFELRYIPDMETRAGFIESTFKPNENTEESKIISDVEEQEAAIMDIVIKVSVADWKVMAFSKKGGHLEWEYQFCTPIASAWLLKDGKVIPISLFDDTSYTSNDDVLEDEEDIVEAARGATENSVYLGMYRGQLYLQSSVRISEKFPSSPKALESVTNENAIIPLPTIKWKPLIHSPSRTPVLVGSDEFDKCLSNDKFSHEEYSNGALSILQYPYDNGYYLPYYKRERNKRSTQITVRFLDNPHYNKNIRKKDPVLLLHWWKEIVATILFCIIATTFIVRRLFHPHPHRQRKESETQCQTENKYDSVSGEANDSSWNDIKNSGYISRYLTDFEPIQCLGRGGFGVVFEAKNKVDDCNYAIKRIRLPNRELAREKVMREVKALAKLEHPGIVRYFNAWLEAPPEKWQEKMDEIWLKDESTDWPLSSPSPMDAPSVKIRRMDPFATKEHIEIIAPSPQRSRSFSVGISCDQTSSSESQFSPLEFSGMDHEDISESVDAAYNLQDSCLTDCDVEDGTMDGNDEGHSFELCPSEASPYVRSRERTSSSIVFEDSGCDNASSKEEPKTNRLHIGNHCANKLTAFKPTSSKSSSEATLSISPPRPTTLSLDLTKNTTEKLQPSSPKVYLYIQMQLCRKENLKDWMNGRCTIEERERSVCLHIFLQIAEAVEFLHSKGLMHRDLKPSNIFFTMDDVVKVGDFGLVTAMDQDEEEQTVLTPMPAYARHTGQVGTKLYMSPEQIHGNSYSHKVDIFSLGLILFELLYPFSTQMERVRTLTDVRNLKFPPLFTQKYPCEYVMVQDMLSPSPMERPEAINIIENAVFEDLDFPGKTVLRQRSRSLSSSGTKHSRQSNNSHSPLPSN
Chain of HER4 (Q15303 26-1308): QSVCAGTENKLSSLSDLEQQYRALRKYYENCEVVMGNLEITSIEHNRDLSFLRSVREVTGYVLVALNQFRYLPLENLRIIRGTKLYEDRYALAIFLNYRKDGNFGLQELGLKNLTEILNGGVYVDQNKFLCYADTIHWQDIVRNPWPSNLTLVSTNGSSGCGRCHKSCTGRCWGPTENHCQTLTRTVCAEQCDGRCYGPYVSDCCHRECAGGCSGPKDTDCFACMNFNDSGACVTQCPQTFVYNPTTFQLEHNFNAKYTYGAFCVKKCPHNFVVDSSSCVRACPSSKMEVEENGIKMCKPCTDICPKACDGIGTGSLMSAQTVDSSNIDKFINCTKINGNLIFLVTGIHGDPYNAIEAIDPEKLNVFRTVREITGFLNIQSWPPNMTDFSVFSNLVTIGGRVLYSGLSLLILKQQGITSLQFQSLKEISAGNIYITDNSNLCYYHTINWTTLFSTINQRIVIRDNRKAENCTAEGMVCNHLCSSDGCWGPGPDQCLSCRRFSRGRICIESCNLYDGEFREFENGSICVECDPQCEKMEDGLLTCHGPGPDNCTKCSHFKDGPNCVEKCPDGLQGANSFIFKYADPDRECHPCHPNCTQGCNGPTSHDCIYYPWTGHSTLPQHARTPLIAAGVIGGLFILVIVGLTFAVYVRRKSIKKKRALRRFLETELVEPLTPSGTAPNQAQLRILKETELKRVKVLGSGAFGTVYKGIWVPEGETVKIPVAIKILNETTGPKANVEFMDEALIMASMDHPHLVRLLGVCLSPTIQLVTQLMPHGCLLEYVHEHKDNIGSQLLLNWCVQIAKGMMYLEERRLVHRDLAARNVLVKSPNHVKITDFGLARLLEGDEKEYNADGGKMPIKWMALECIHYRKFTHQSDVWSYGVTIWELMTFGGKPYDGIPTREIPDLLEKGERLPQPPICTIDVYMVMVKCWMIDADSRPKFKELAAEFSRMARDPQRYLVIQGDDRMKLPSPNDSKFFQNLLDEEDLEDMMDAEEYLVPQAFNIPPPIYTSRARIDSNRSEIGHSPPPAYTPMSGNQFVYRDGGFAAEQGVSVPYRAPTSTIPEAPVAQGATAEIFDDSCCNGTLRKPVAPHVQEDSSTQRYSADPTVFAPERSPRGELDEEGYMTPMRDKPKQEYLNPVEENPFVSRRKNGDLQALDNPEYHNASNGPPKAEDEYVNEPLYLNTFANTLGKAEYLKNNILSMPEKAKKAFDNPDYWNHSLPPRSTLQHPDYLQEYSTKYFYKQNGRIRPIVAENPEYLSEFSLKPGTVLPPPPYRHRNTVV
T1 sequence (Q96RR4 whole entry): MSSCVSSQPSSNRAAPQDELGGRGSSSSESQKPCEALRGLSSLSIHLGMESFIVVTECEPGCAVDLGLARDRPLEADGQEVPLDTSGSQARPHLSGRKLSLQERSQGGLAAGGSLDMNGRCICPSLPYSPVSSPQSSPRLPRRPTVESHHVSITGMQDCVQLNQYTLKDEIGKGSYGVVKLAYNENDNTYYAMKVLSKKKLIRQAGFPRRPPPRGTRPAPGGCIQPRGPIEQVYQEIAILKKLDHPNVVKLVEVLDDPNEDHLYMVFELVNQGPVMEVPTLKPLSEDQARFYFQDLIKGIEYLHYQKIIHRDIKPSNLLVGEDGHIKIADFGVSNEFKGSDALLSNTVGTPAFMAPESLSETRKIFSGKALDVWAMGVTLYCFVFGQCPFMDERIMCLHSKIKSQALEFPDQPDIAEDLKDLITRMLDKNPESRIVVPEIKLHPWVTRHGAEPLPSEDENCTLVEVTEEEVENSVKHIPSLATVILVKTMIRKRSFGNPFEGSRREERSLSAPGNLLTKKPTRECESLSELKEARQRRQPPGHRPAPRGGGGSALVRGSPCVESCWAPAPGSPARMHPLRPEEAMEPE
Chain of IGF-1R (P08069 31-1367): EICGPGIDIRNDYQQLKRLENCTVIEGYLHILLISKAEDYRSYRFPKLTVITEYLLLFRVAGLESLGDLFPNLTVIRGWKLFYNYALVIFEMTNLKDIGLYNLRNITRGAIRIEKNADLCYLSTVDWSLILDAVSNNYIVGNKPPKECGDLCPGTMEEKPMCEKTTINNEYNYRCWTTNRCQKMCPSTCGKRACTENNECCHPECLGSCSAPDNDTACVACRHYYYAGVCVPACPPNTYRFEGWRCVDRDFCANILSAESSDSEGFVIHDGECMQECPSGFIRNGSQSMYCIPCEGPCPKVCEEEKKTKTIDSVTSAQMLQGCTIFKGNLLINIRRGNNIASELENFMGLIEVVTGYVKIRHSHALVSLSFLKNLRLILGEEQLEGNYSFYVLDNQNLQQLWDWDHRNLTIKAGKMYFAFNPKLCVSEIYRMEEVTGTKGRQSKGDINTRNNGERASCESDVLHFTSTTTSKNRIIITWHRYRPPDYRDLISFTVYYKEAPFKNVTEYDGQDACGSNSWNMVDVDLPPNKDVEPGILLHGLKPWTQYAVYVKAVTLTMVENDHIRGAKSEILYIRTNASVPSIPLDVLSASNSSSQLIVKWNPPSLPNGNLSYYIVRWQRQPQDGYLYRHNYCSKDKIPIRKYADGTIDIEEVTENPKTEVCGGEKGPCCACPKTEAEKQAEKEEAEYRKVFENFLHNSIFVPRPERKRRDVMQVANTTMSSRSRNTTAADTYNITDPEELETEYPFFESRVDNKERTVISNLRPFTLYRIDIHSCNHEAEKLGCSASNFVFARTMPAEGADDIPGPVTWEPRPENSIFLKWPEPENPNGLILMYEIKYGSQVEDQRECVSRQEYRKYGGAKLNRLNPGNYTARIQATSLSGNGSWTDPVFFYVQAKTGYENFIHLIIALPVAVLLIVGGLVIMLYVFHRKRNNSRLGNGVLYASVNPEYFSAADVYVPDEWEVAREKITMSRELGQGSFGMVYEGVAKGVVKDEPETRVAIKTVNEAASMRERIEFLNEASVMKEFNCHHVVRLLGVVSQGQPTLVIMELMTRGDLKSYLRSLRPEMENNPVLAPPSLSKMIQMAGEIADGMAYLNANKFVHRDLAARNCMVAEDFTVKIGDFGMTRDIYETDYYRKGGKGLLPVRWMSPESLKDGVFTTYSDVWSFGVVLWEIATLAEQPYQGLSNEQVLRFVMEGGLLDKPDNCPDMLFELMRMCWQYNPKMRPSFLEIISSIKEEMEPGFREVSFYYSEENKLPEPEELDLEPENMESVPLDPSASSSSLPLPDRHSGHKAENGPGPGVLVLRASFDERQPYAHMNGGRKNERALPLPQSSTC

The term pEC50 denotes the EC50 on a negative log10 scale, so that one unit is a factor of ten. As a reminder, the remaining activity is the signal under treatment as a percentage of the control signal. Take `CCc1ccccc1C(=O)Nc1n[nH]c2c(C)c(F)c(C3C(C#N)=C(C)N(C)C(C)=C3C#N)cc12` [BAY-3827, N-[5-(3,5-dicyano-1,2,6-trimethyl-4H-pyridin-4-yl)-6-fluoro-7-methyl-1H-indazol-3-yl]-2-ethylbenzamide]: the “inhibitory effect on kinase activity” value on CaMKK2 is given as “no inhibitory effect”. Further, the figures for the negative logarithm of the EC50 (pEC50) in experiment [1] (+ MK-8722 (10 μM)) and in experiment [1] (without MK-8722) were 6.24 and 5.71, respectively. The “AMPK phosphorylation (pThr172)” value in experiment [1] is listed as “dose-dependently increased”. The remaining activity at 0.1 µM on PKA is 94%; on HER4, 135%; on IGF-1R, 67%; at EIF2AK3, 98%.
Take `CC1=C(C#N)C(c2ccc3c(c2)c(NC(=O)c2ccccc2C)nn3C)C(C#N)=C(C)N1` [BAY-974, N-[5-(3,5-dicyano-2,6-dimethyl-1,4-dihydropyridin-4-yl)-1-methylindazol-3-yl]-2-methylbenzamide]: the “inhibitory effect on kinase activity” value on CaMKK2 is recorded as “no inhibitory effect”. In experiment [1], the “AMPK phosphorylation (pThr172)” value is given as “not”. In addition, the remaining activity at 0.1 µM at PKA amounted to 103%; on HER4, 93%; on IGF-1R, 147%; on EIF2AK3, 113%.
